The CheMixHub viscosity set
Values joined by “and” are separate entries in the source; they are usually repeats but may differ in a detail not shown here. Equal entries are not always repeated.

What was measured:
[1] = xn = mol fraction of the nth substance listed

C1COCOC1
101 kPa
Settings	viscosity [mPa·s]
298.15 K	1.057
313.15 K	0.8452

C=COC(C)=O
Settings	viscosity [mPa·s]
303.15 K, 101.33 kPa	0.372

CC(C)C(C)O (configuration not stated)
101.33 kPa
Settings	viscosity [mPa·s]
303.15 K	3.163
313.15 K	2.185
323.15 K	1.573

CC(C)c1ccccc1
viscosity
Settings	293.15 K	298.15 K	303.15 K	308.15 K	313.15 K	318.15 K	323.15 K
100 kPa	–	0.772 mPa·s	–	0.692 mPa·s	–	0.623 mPa·s	–
101 kPa	0.779 mPa·s	0.7314 mPa·s and 0.731 mPa·s	0.68 mPa·s and 0.6881 mPa·s	0.6366 mPa·s and 0.636 mPa·s and 0.6488 mPa·s	0.608 mPa·s and 0.607 mPa·s and 0.6116 mPa·s	0.5767 mPa·s	0.5447 mPa·s

CCC(CC)CO
Settings	viscosity
298.15 K, 101.33 kPa	5.819 mPa·s and 5.819 mPa·s

CCCCCCCC(=O)O
Settings	viscosity [mPa·s]
298.15 K, 101 kPa	5.16

CCCCCCCCCCCCCCCCCCCC
Settings	viscosity [mPa·s]
313.2 K, 101.3 kPa	4.01

CCCCOC(C)=O
viscosity
Settings	293.15 K	298.15 K	308.15 K	313.15 K	318.15 K	323.15 K
100 kPa	0.73 mPa·s	0.683 mPa·s	–	0.55 mPa·s	0.51 mPa·s	0.465 mPa·s
101 kPa	0.724 mPa·s and 0.724 mPa·s	–	–	–	0.524 mPa·s and 0.5262 mPa·s	0.507 mPa·s
101.33 kPa	0.735 mPa·s	–	0.592 mPa·s and 0.593 mPa·s and 0.584 mPa·s	0.557 mPa·s and 0.565 mPa·s	0.524 mPa·s	–

CCCN
Settings	viscosity
293.15 K, 101.3 kPa	0.359 mPa·s
298.15 K, 100 kPa	0.365 mPa·s
298.15 K, 101.3 kPa	0.342 mPa·s
298.15 K, 101.33 kPa	0.356 mPa·s
303.15 K, 101 kPa	0.3468 mPa·s and 0.3479 mPa·s
303.15 K, 101.33 kPa	0.3479 mPa·s and 0.3512 mPa·s
308.15 K, 101 kPa	0.2998 mPa·s
308.15 K, 101.33 kPa	0.328 mPa·s
313.15 K, 101.33 kPa	0.3123 mPa·s
318.15 K, 101.33 kPa	0.291 mPa·s

CCCN(CCC)C(C)=O
Settings	viscosity [mPa·s]
298.16 K, 101 kPa	2.204

CCCOC(=O)c1ccccc1
viscosity [mPa·s]
Settings	293.15 K	298.15 K	303.15 K	308.15 K	313.15 K	318.15 K	323.15 K
101 kPa	–	2.357	–	1.905	–	1.574	–
101.33 kPa	2.586	–	2.013	–	1.604	–	1.301

CN1CCCN(C)C1=O
viscosity [mPa·s]
Settings	293.15 K	298.15 K	303.15 K	308.15 K	313.15 K	318.15 K	323.15 K
100 kPa	3.514	3.11	2.779	2.501	2.266	2.064	1.891
101 kPa	–	2.95	–	–	–	–	–

C[n+]1ccn(CCO)c1.O=C([O-])C(F)(F)C(F)(F)C(F)(F)C(F)(F)F
101 kPa
Settings	viscosity [mPa·s]
298.15 K	712.8
308.15 K	351.3
318.15 K	190.8

Clc1ccccc1Cl
viscosity
Settings	298.15 K	303.15 K	308.15 K	313.15 K	318.15 K
100 kPa	–	1.238 mPa·s	1.146 mPa·s	1.054 mPa·s	0.974 mPa·s
101 kPa	1.22 mPa·s	1.129 mPa·s and 1.22 mPa·s	1.058 mPa·s and 1.148 mPa·s	0.9857 mPa·s and 1.054 mPa·s	0.974 mPa·s

N#CCCl
101 kPa
Settings	viscosity [mPa·s]
293.15 K	0.938
298.15 K	0.863
303.15 K	0.798
313.15 K	0.714
323.15 K	0.616

OCCc1ccccc1
viscosity
Settings	298.15 K	303.15 K	308.15 K	313.15 K
100 kPa	–	9.05 mPa·s and 9.027 mPa·s	7.653 mPa·s	6.335 mPa·s
101 kPa	10.9 mPa·s	–	–	–

Oc1ccccc1Cl
Settings	viscosity
293.15 K, 101 kPa	4.21 mPa·s
298 K, 101 kPa	3.376 mPa·s
298 K, 101.3 kPa	3.376 mPa·s
298 K, 101.33 kPa	3.36 mPa·s
298.15 K, 101 kPa	3.671 mPa·s and 3.381 mPa·s
303 K, 101 kPa	2.927 mPa·s
303 K, 101.3 kPa	2.927 mPa·s
303.15 K, 101 kPa	3.08 mPa·s and 2.821 mPa·s and 2.998 mPa·s
308 K, 101 kPa	2.532 mPa·s
308 K, 101.3 kPa	2.532 mPa·s
308.15 K, 101 kPa	2.491 mPa·s and 2.358 mPa·s
313 K, 101 kPa	2.191 mPa·s
313 K, 101.3 kPa	2.191 mPa·s
313.15 K, 101 kPa	2.32 mPa·s and 2.32 mPa·s and 2.259 mPa·s
318 K, 101 kPa	1.947 mPa·s
318 K, 101.3 kPa	1.947 mPa·s
318.15 K, 101 kPa	2.038 mPa·s
323.1 K, 101 kPa	2.015 mPa·s
323.15 K, 101 kPa	1.871 mPa·s

CC(C)c1ccccc1 + c1ccccc1
[1]
Settings	viscosity [mPa·s]
293.15 K, 101.33 kPa, x2 = 0.3728	0.721
293.15 K, 101.33 kPa, x2 = 0.5889	0.693
293.15 K, 101.33 kPa, x2 = 0.8176	0.66
293.15 K, 101.33 kPa, x2 = 0.9057	0.653
303.15 K, 101.3 kPa, x2 = 0.1245	0.6683
303.15 K, 101.3 kPa, x2 = 0.2644	0.6483
303.15 K, 101.3 kPa, x2 = 0.4246	0.6265
303.15 K, 101.3 kPa, x2 = 0.5391	0.6111
303.15 K, 101.3 kPa, x2 = 0.5606	0.6069
303.15 K, 101.3 kPa, x2 = 0.6382	0.5972
303.15 K, 101.3 kPa, x2 = 0.6478	0.5958
303.15 K, 101.3 kPa, x2 = 0.7409	0.5819
303.15 K, 101.3 kPa, x2 = 0.831	0.5721
303.15 K, 101.3 kPa, x2 = 0.919	0.5634
303.15 K, 101.33 kPa, x2 = 0.3728	0.63
303.15 K, 101.33 kPa, x2 = 0.5889	0.607
303.15 K, 101.33 kPa, x2 = 0.8176	0.575
303.15 K, 101.33 kPa, x2 = 0.9057	0.563
313.15 K, 101.33 kPa, x2 = 0.3728	0.56
313.15 K, 101.33 kPa, x2 = 0.5889	0.537
313.15 K, 101.33 kPa, x2 = 0.8176	0.512
313.15 K, 101.33 kPa, x2 = 0.9057	0.496
323.15 K, 101.33 kPa, x2 = 0.3728	0.499
323.15 K, 101.33 kPa, x2 = 0.5889	0.479
323.15 K, 101.33 kPa, x2 = 0.8176	0.454
323.15 K, 101.33 kPa, x2 = 0.9057	0.441

CCCCCCCC(=O)O + c1ccccc1
[1], 298.15 K, 101 kPa
Settings	viscosity [mPa·s]
x1 = 0.03	0.638
x1 = 0.057	0.68
x1 = 0.087	0.727
x1 = 0.12	0.781
x1 = 0.27	1.072
x1 = 0.35	1.295
x1 = 0.45	1.591
x1 = 0.68	2.505

CCCCOC(C)=O + c1ccccc1
viscosity [mPa·s], [1], 101 kPa
Settings	298.15 K	308.15 K
x1 = 0.0487	0.601	0.527
x1 = 0.1494	0.598	0.528
x1 = 0.2494	0.598	0.532
x1 = 0.3494	0.6	0.536
x1 = 0.4454	0.604	0.541
x1 = 0.4954	0.607	0.544
x1 = 0.5489	0.611	0.548
x1 = 0.6497	0.62	0.556
x1 = 0.7503	0.632	0.565
x1 = 0.8496	0.647	0.575
x1 = 0.9424	0.663	0.586

CCCN + c1ccccc1
viscosity [mPa·s], [1], 101 kPa
Settings	x1 = 0.007866	x1 = 0.01864	x1 = 0.02795	x1 = 0.03664	x1 = 0.04697	x1 = 0.0579	x1 = 0.06586	x1 = 0.07593	x1 = 0.08436
303.15 K	0.5618	0.5605	0.5588	0.5574	0.5554	0.5534	0.552	0.5501	0.548
313.15 K	0.4898	0.4864	0.4837	0.4817	0.4766	0.4725	0.4704	0.467	0.4636

Oc1ccccc1Cl + c1ccncc1
viscosity [mPa·s], [1], 101 kPa
Settings	293.15 K	303.15 K	313.15 K
x1 = 0.07182	1.158	0.994	0.863
x1 = 0.1451	1.459	1.249	1.073
x1 = 0.2211	1.903	1.588	1.351
x1 = 0.311	2.62	2.152	1.773
x1 = 0.395	3.69	2.96	2.31
x1 = 0.4815	5.28	3.92	2.98
x1 = 0.5607	6.82	4.72	3.53
x1 = 0.6186	7.8	5.22	3.78
x1 = 0.6723	8.23	5.4	3.84
x1 = 0.7248	8.16	5.36	3.78
x1 = 0.7794	7.58	5.04	3.55
x1 = 0.8837	5.97	4.11	2.94
